Where two headings read alike, the source gives them in different places.

The source of these data is US12378220B2, “WNT signaling pathway inhibitors for treatments of disease” (University of Maryland, Baltimore, priority 2016, dated 2025).

The test deals with Wnt/β-catenin pathway. The test is described as follows: dual-luciferase TCF/LEF reporter assay, LiCl-activated, HEK293 cells. Format: cell-based. As to the method: Lithium chloride (LiCl), which has been previously established as an activator of the Wnt/β-catenin pathway through its direct and indirect effects on GSK3β was used for pathway activation. The inhibition of the Wnt/β-catenin pathway by a compound may be determined after its incubation with cells for 24 hours.
The assay provided herein is a dual-luciferase assay to measure Wnt/β-catenin pathway activation using a TCF/LEF responsive reporter construct similar to that described previously (Thorne et al., 2010).

Where [1] appears, read: Homo sapiens, HEK293, Table 6, read-out: IC50 (nM) or remaining activity at 1 μM: IC50.
[2] abbreviates: Homo sapiens, HEK293, 24 h, At 1 μM concentration, remaining Wnt signaling activity, read-out: RLU % (Relative Light Units in reporter gene assays).
The mark [3] stands for this setting: Homo sapiens, HEK293, Table 3, values in nM, read-out: IC50.
Setting [4] is: Homo sapiens, HEK293, Table 4, @ 1 μM, read-out: IC50 (nM) or remaining activity at 1 μM: remaining activity.
Setting [5] is: Homo sapiens, HEK293, Table 3, values in μM, read-out: IC50.
The mark [6] stands for this setting: Homo sapiens, HEK293, Table 5, read-out: IC50 (nM) or remaining activity at 1 μM: IC50.

Consider `Cc1c(C(=O)Nc2ccc3ccccc3n2)nnn1-c1cccc2ccccc12` [Compound 43, 5-Methyl-1-(naphthalen-1-yl)-N-(quinolin-2-yl)-1H-1,2,3-triazole-4-carboxamide], for which the IC50 under setting [1] amounted to 4000 nM.
Consider `Cc1ccccc1-n1nnc(C(=O)Nc2ccc3ccccc3c2)c1C` [YW1130, 5-Methyl-N-(naphthalen-2-yl)-1-(o-tolyl)-1H-1,2,3-triazole-4-carboxamide], for which the activity at 1 µM under setting [2] was 19.7%. In addition, the IC50 under setting [3] was found to be 471 nM.
With `Cc1ccc(-n2nnc(C(=O)Nc3ccccn3)c2C)cc1` [Compound 20, 5-Methyl-N-(pyridin-2-yl)-1-(p-tolyl)-1H-1,2,3-triazole-4-carboxamide], the activity at 1 µM (Homo sapiens, HEK293, Table 5, @ 1 μM, read-out: IC50 (nM) or remaining activity at 1 μM: remaining activity) came to 100%.
With `Cc1ccc(-n2c(C)cc(C(=O)Nc3nc(-c4ccccc4)cs3)c2C)cc1` [Compound 16, 2,5-dimethyl-N-(4-phenylthiazol-2-yl)-1-(p-tolyl)-1H-pyrrole-3-carboxamide], the IC50 (Homo sapiens, HEK293, Table 4, LiCl-mediated WNT signaling, read-out: IC50 (nM) or remaining activity at 1 μM: IC50) worked out at 379 nM.
Consider `Cc1c(C(=O)Nc2ccc3ccccc3n2)nnn1-c1ccccc1C(N)=O` [Compound 40, 1-(2-Carbamoylphenyl)-5-methyl-N-(quinolin-2-yl)-1H-1,2,3-triazole-4-carboxamide], for which the IC50 under setting [1] is above 100000 nM.
Same read-out and setting: with `Cc1c(C(=O)Nc2ccc3ccccc3n2)nnn1-c1ccccc1C#N` [Compound 34, 1-(2-Cyanophenyl)-5-methyl-N-(quinolin-2-yl)-1H-1,2,3-triazole-4-carboxamide] the figure was 76 nM.
For `Cc1ccc(-n2nnc(C(=O)Nc3ccc4ccccc4n3)c2C)c(C)c1` [YW1179, 1-(2,4-Dimethylphenyl)-5-methyl-N-(quinolin-2-yl)-1H-1,2,3-triazole-4-carboxamide], under setting [2], the activity at 1 µM turned out to be 10.6%. In addition, the IC50 under setting [3] was found to be 130 nM.
As for `Cc1c(C(=O)Nc2ccc3ccccc3n2)nnn1-c1ccccc1N1CCOCC1` [Compound 37, 5-Methyl-1-(2-morpholinophenyl)-N-(quinolin-2-yl)-1H-1,2,3-triazole-4-carboxamide], the IC50 under setting [1] is above 1000 nM.
Consider `Cc1cccc(-n2nnc(C(=O)Nc3ccc4ccccc4n3)c2C)c1C` [YW1170, 1-(2,3-Dimethylphenyl)-5-methyl-N-(quinolin-2-yl)-1H-1,2,3-triazole-4-carboxamide], for which the activity at 1 µM under setting [2] was determined as 17.8%. Moreover, under setting [3], the IC50 stood at 567 nM.
For `CC(=O)c1ccccc1-n1nnc(C(=O)Nc2ccc3ccccc3n2)c1C` [Compound 39, 1-(2-Acetylphenyl)-5-methyl-N-(quinolin-2-yl)-1H-1,2,3-triazole-4-carboxamide], the IC50 under setting [1] was determined as 814 nM.
As to `Cc1ccc(-n2nnc(C(=O)Nc3ccc4c(=O)cc(C)oc4c3)c2C)cc1` [YW1123, 5-Methyl-N-(2-methyl-4-oxo-4H-chromen-7-yl)-1-(p-tolyl)-1H-1,2,3-triazole-4-carboxamide], the activity at 1 µM under setting [2] turned out to be 87.6%.
`Cc1ccc(-n2c(C)cc(C(=O)Nc3cnccn3)c2C)cc1` [Compound 15, 2,5-Dimethyl-N-(pyrazin-2-yl)-1-(p-tolyl)-1H-pyrrole-3-carboxamide]: the activity at 1 µM under setting [4] is 112%.
`CC(C)c1c(C(=O)Nc2ccc3ccccc3n2)nnn1-c1ccccc1F` [Compound 46, 1-(2-Fluorophenyl)-5-isopropyl-N-(quinolin-2-yl)-1H-1,2,3-triazole-4-carboxamide]: where the note is “Table 7, read-out: IC50”, the IC50 was 177 nM.
On to `Cc1ccc(-n2c(C)cc(C(=O)Nc3nc(-c4ccccc4)cs3)c2C)cc1` [YW1114, 2,5-Dimethyl-N-(4-phenylthiazol-2-yl)-1-(p-tolyl)-1H-pyrrole-3-carboxamide], for which the activity at 1 µM under setting [2] was 34.6%. Besides, the IC50 under setting [3] is 379 nM.
In the case of `Cc1c(C(=O)Nc2ccc3ccccc3n2)nnn1-c1ccc(F)cc1[N+](=O)[O-]` [YW1171, 1-(4-Fluoro-2-nitrophenyl)-5-methyl-N-(quinolin-2-yl)-1H-1,2,3-triazole-4-carboxamide], under setting [2], the activity at 1 µM came out at 77.8%. The IC50 under setting [5] stood at 5000 nM.
With `Cc1cccc(-n2nnc(C(=O)Nc3ccc4ccccc4n3)c2C)c1C` [Compound 42, 1-(2,3-Dimethylphenyl)-5-methyl-N-(quinolin-2-yl)-1H-1,2,3-triazole-4-carboxamide], under setting [1], the IC50 was 567 nM.
As to `Cc1ccc(-n2c(C)cc(C(=O)Nc3cnccn3)c2C)cc1` [YW1117-2, 2,5-Dimethyl-N-(pyrazin-2-yl)-1-(p-tolyl)-1H-pyrrole-3-carboxamide], the activity at 1 µM under setting [2] turned out to be 113%.
As for `Cc1ccccc1-n1nnc(C(=O)Nc2nc3ccccc3s2)c1C` [Compound 29, N-(benzo[d]thiazol-2-yl)-5-methyl-1-(o-tolyl)-1H-1,2,3-triazole-4-carboxamide], the IC50 (Table 7, read-out: IC50) was 34 nM.
As for `Cc1ccccc1-n1nnc(C(=O)Nc2nc3ccccc3s2)c1C` [YW1132, N-(benzo[d]thiazol-2-yl)-5-methyl-1-(o-tolyl)-1H-1,2,3-triazole-4-carboxamide], the activity at 1 µM under setting [2] is 4.9%. The concentration for half-maximal inhibition (IC50) under setting [3] came to 34 nM.
`Cc1c(C(=O)Nc2ccc3ccccc3n2)nnn1-c1cccc(Cl)c1` [Compound 44, 1-(3-Chlorophenyl)-5-methyl-N-(quinolin-2-yl)-1H-1,2,3-triazole-4-carboxamide]: the IC50 under setting [1] was determined as 731 nM.
On to `Cc1ccc(-n2c(C)cc(C(=O)NCc3ccccc3)c2C)cc1` [Compound 17, N-benzyl-2,5-dimethyl-1-(p-tolyl)-1H-pyrrole-3-carboxamide], for which, under setting [4], the activity at 1 µM came out at 93%.
For `Cc1ccc(-n2nnc(C(=O)Nc3cccc(C)n3)c2C)cc1` [YW1134, 5-Methyl-N-(6-methylpyridin-2-yl)-1-(p-tolyl)-1H-1,2,3-triazole-4-carboxamide], the activity at 1 µM under setting [2] came to 79.5%. For the same compound, under setting [3], the IC50 is 273 nM.
Regarding `Cc1ccccc1-n1nnc(C(=O)Nc2nc(-c3ccccc3)cs2)c1C` [Compound 30, 5-Methyl-N-(4-phenylthiazol-2-yl)-1-(o-tolyl)-1H-1,2,3-triazole-4-carboxamide], the IC50 (Table 7, read-out: IC50) came to 22000 nM.
On to `Cc1ccc(-n2nnc(C(=O)Nc3cccc(C)n3)c2C)cc1` [Compound 21, 5-Methyl-N-(6-methylpyridin-2-yl)-1-(p-tolyl)-1H-1,2,3-triazole-4-carboxamide], for which the IC50 under setting [6] was determined as 273 nM.
Take `Cc1ccc(-n2c(C)cc(C(=O)NCc3ccccc3)c2C)cc1` [YW1104, N-Benzyl-2,5-dimethyl-1-(p-tolyl)-1H-pyrrole-3-carboxamide]: the activity at 1 µM under setting [2] came to 92.9%. In addition, the half-inhibitory concentration (IC50) under setting [5] stood at 49000 nM.
Consider `Cc1c(C(=O)Nc2ccc3ccccc3n2)nnn1-c1ccccc1C#N` [YW1157, 1-(2-Cyanophenyl)-5-methyl-N-(quinolin-2-yl)-1H-1,2,3-triazole-4-carboxamide], for which the activity at 1 µM under setting [2] amounted to 6.5%. The IC50 under setting [3] was determined as 76 nM.
With `Cc1c(C(=O)Nc2ccc3ccccc3n2)nnn1-c1ccccc1C(N)=O` [YW1182, 1-(2-Carbamoylphenyl)-5-methyl-N-(quinolin-2-yl)-1H-1,2,3-triazole-4-carboxamide], the activity at 1 µM under setting [2] is 89.9%. Besides, the half-maximal inhibitory concentration (IC50) under setting [5] is above 100000 nM.
Turning to `Cc1ccc(-n2nnc(C(=O)NCc3ccccn3)c2C)cc1` [Compound 25, 5-Methyl-N-(pyridin-2-ylmethyl)-1-(p-tolyl)-1H-1,2,3-triazole-4-carboxamide], the IC50 under setting [6] is above 1000 nM.
The same measure, in the same setting: with `Cc1ccc(-n2nnc(C(=O)Nc3cc(C)no3)c2C)cc1` [Compound 24, 5-Methyl-N-(3-methylisoxazol-5-yl)-1-(p-tolyl)-1H-1,2,3-triazole-4-carboxamide] the figure was 48000 nM.
